Assay results reported in PubChem BioAssay (NCI).
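Step 1: Grow cells in 96-well plates. Step 2: Expose to compound for 48 hours at 5 concentrations. Step 3: Interpolate endpoints linearly; if unreached, use highest concentration. GI50 = concentration required for 50% inhibition of growth. The concentration for full growth arrest is given as TGI.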

Legend:
Experiment in all cases: NCI tumour cell line growth inhibition, 48 h
OVCAR-4 ovarian = test system: OVCAR-4 ovarian
UACC-257 melanoma = test system: UACC-257 melanoma
NCI-H522 lung = test system: NCI-H522 lung
HOP-62 NSCLC = test system: HOP-62 NSCLC
MOLT-4 leukemia = test system: MOLT-4 leukemia
BT-549 breast = test system: BT-549 breast
U251 CNS = test system: U251 CNS
PC-3 prostate = test system: PC-3 prostate
NCI/ADR-RES ovarian = test system: NCI/ADR-RES ovarian
HS 578T breast = test system: HS 578T breast
T-47D breast = test system: T-47D breast
MALME-3M melanoma = test system: MALME-3M melanoma
ACHN renal = test system: ACHN renal
NCI-H460 lung = test system: NCI-H460 lung
A498 renal = test system: A498 renal
HCT-116 colon = test system: HCT-116 colon
SF-268 CNS = test system: SF-268 CNS
HCT-15 colon = test system: HCT-15 colon
SR leukemia = test system: SR leukemia
A549 NSCLC = test system: A549 NSCLC
SK-MEL-28 melanoma = test system: SK-MEL-28 melanoma
UO-31 renal = test system: UO-31 renal
CAKI-1 renal = test system: CAKI-1 renal
LOX IMVI melanoma = test system: LOX IMVI melanoma
SW-620 colon = test system: SW-620 colon
IGROV1 ovarian = test system: IGROV1 ovarian
SF-295 CNS = test system: SF-295 CNS
K-562 leukemia = test system: K-562 leukemia
SNB-19 CNS = test system: SNB-19 CNS
OVCAR-3 ovarian = test system: OVCAR-3 ovarian
SK-MEL-2 melanoma = test system: SK-MEL-2 melanoma
RPMI-8226 leukemia = test system: RPMI-8226 leukemia
NCI-H226 lung = test system: NCI-H226 lung
MDA-MB-435 = test system: MDA-MB-435
SN12C renal = test system: SN12C renal
SK-OV-3 ovarian = test system: SK-OV-3 ovarian
MCF7 breast = test system: MCF7 breast
TK-10 renal = test system: TK-10 renal
RXF 393 renal = test system: RXF 393 renal
EKVX NSCLC = test system: EKVX NSCLC
SF-539 CNS = test system: SF-539 CNS
KM12 colon = test system: KM12 colon
M14 melanoma = test system: M14 melanoma
HOP-92 NSCLC = test system: HOP-92 NSCLC
SNB-75 CNS = test system: SNB-75 CNS
CCRF-CEM leukemia = test system: CCRF-CEM leukemia
OVCAR-5 ovarian = test system: OVCAR-5 ovarian
COLO 205 colon = test system: COLO 205 colon
HL-60(TB) leukemia = test system: HL-60(TB) leukemia
OVCAR-8 ovarian = test system: OVCAR-8 ovarian
SK-MEL-5 melanoma = test system: SK-MEL-5 melanoma
HT29 colon = test system: HT29 colon
UACC-62 melanoma = test system: UACC-62 melanoma
HCC-2998 colon = test system: HCC-2998 colon
DU-145 prostate = test system: DU-145 prostate
786-0 renal = test system: 786-0 renal
MDA-MB-231 breast = test system: MDA-MB-231 breast
NCI-H23 lung = test system: NCI-H23 lung

## COc1ccc(/C=C2\COc3ccc(O)c(O)c3C2=O)cc1
OVCAR-4 ovarian
  GI50: 2380 nM
  TGI: > 33200 nM
UACC-257 melanoma
  GI50: 1470 nM
  TGI: 8970 nM
NCI-H522 lung
  GI50: 159 nM
  TGI: 402 nM
HOP-62 NSCLC
  GI50: 2240 nM
  TGI: 16200 nM
MOLT-4 leukemia
  GI50: 376 nM
  TGI: 20400 nM
BT-549 breast
  GI50: 511 nM
  TGI: 4850 nM
U251 CNS
  GI50: 1310 nM
  TGI: 6070 nM
PC-3 prostate
  GI50: 741 nM
  TGI: 23600 nM
NCI/ADR-RES ovarian
  GI50: 329 nM
  TGI: 35700 nM
HS 578T breast
  GI50: 422 nM
  TGI: > 100000 nM
T-47D breast
  GI50: 1170 nM
  TGI: 4710 nM
MALME-3M melanoma
  GI50: 751 nM
  TGI: 2690 nM
ACHN renal
  GI50: 637 nM
  TGI: 2000 nM
NCI-H460 lung
  GI50: 2460 nM
  TGI: 7940 nM
A498 renal
  GI50: 1000 nM
  TGI: 5550 nM
HCT-116 colon
  GI50: 2000 nM
  TGI: 6850 nM
SF-268 CNS
  GI50: 1340 nM
  TGI: 6580 nM
HCT-15 colon
  GI50: 492 nM
  TGI: 2740 nM
SR leukemia
  GI50: 403 nM
  TGI: > 100000 nM
A549 NSCLC
  GI50: 2550 nM
  TGI: 16200 nM
SK-MEL-28 melanoma
  GI50: 1150 nM
  TGI: 7470 nM
UO-31 renal
  GI50: 606 nM
  TGI: 1970 nM
CAKI-1 renal
  GI50: 951 nM
  TGI: 4230 nM
LOX IMVI melanoma
  GI50: 369 nM
  TGI: 1520 nM
SW-620 colon
  GI50: 1310 nM
  TGI: 4820 nM
IGROV1 ovarian
  GI50: 522 nM
  TGI: 2490 nM
SF-295 CNS
  GI50: 4620 nM
  TGI: > 100000 nM
K-562 leukemia
  GI50: 330 nM
  TGI: > 100000 nM
SNB-19 CNS
  GI50: 2980 nM
  TGI: > 100000 nM
OVCAR-3 ovarian
  GI50: 511 nM
  TGI: 4570 nM
SK-MEL-2 melanoma
  GI50: 517 nM
  TGI: 26900 nM
RPMI-8226 leukemia
  GI50: 317 nM
  TGI: 1200 nM
NCI-H226 lung
  GI50: 2370 nM
  TGI: 6900 nM
MDA-MB-435
  GI50: 257 nM
  TGI: 984 nM
SN12C renal
  GI50: 391 nM
  TGI: 2530 nM
SK-OV-3 ovarian
  GI50: 923 nM
  TGI: > 100000 nM
MCF7 breast
  GI50: 464 nM
  TGI: > 100000 nM
TK-10 renal
  GI50: 1570 nM
  TGI: > 27100 nM
RXF 393 renal
  GI50: 440 nM
  TGI: 1310 nM
EKVX NSCLC
  GI50: 2470 nM
  TGI: > 61300 nM
SF-539 CNS
  GI50: 325 nM
  TGI: 1170 nM
KM12 colon
  GI50: 924 nM
  TGI: 3950 nM
M14 melanoma
  GI50: 308 nM
  TGI: > 48200 nM
HOP-92 NSCLC
  GI50: 1140 nM
  TGI: 6100 nM
SNB-75 CNS
  GI50: 572 nM
  TGI: > 100000 nM
CCRF-CEM leukemia
  GI50: 333 nM
  TGI: 9820 nM
OVCAR-5 ovarian
  GI50: 2190 nM
  TGI: 5850 nM
COLO 205 colon
  GI50: 3150 nM
  TGI: 10800 nM
HL-60(TB) leukemia
  GI50: 334 nM
  TGI: 2090 nM
OVCAR-8 ovarian
  GI50: 458 nM
  TGI: 18700 nM
SK-MEL-5 melanoma
  GI50: 329 nM
  TGI: 1250 nM
HT29 colon
  GI50: 3270 nM
  TGI: 19600 nM
UACC-62 melanoma
  GI50: 513 nM
  TGI: 2410 nM
HCC-2998 colon
  GI50: 2450 nM
  TGI: 6280 nM
DU-145 prostate
  GI50: 1080 nM
  TGI: > 31200 nM
786-0 renal
  GI50: 708 nM
  TGI: 5270 nM
MDA-MB-231 breast
  GI50: 420 nM
  TGI: 3110 nM
NCI-H23 lung
  GI50: 2890 nM
  TGI: 14900 nM
